Several values for one entry are separate records, joined by “and”; a condition that tells them apart may be missing. Equal values may be shown once.
What was measured:
total IκBα = test: NanoBiT cell-based immunoassay, total IκBα in human primary mammary epithelial cells; conditions: for Total IkB Average: background subtracted; for Total IkB Raw data / Total IkB Subtract reagent background: listed as TNF;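 on all read-outs here: TNFα at 50 ng per ml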
Method: (§1) All cell lines used are from ATCC. […] Human Primary Mammary Epithelial Cells (#H-6035), Human Breast Tumor Epithelial Cells (#HC-6035), Complete Human Epithelial Cell Medium (#H6621), and Gelatin-Based Coating Solution (#H6950) were purchased from Cell Biologics. The cells were cultured according to the manufacturer’s procedure. All cells were grown at 37 °C in a 5% CO2 humidified incubator and passaged before reaching 80% cell confluency. Prior to each experiment, cells were counted by combining 30 µl of cell suspension with 30 µl of trypan blue. After gentle pipetting up and down to mix the cells and the dye, the cell number was determined using Bio-Rad TC 20 cell counter.
(§2) Prior to NanoBiT Cell-Based Immunoassay, 50,000 cells were seeded in 160 µl of complete growth media per well of a 96-well plate and incubated overnight. The cells were checked under microscope and it was determined that 50,000 cells per well in 96-well plate is under 90% confluency for all cells tested. If necessary, the cell culture media were replaced with serum-free media after the cells were stably adherent on the plate and incubated overnight. To treat cells with activators or inhibitors, medium was changed to 30 µl of medium containing inhibitors. If activation of a specific pathway is needed, the cells were stimulated with 10 µl of medium containing activators. To lyse the cells, 10 µl of lysis buffer containing 0.1% digitonin diluted in 1X immunoassay buffer with protease and phosphatase inhibitors was added and the plates were mixed vigorously for 20 min. Then, 50 µl of an antibody mix containing two primary antibodies against the target protein and NanoBiT detecting antibodies (0.3 µl each per well), diluted in 1X immunoassay buffer was added to the lysates. The plates were incubated at 23 °C for 90 min, followed by the addition of 25 µl of Nano-Glo® reagent consisting of Nano-Glo® Luciferase Assay Substrate mixed with 1X immunoassay buffer. Luminescence was measured using a plate-reading luminometer.
(§3) Single dose or dose response inhibitor treatments were performed prior to activation of the pathways as follows. For IκBα, the cells were treated in 30 µl medium with IKK16 or MG132 for 60 min before the addition of 10 µl of DMEM containing appropriate concentration of TNFα. To measure phosphorylation of AKT or STAT3, the corresponding NanoBiT immunoassays were developed with MCF-7 or A431 cells, respectively, according the same scheme used to develop the IκBα assay using the primary antibodies for AKT and STAT3 described in the reagents section. For the AKT assay, MCF-7 cells were incubated overnight in phenol-red free DMEM medium (Gibco #21063-029) without serum. Treatment with LY294002 was performed in 30 µl medium and cells were incubated for 60 min before the addition of 1 µM Insulin. To measure STAT3 phosphorylation, A431 cells were incubated overnight in DMEM medium without serum. […] After addition of the stimulators, the cells were incubated for additional times as follows. IκBα phosphorylation and degradation analyses required both time courses and single time points as described in figures. […] The NanoBiT immunoassay protocol was followed as described above.
(§4) All 96-well assay plates were read using a GloMax® 96 Microplate Luminometer from Promega. The instrument was set to 0.5 s integration time. In order to obtain net change of signal, the reagent background values (signal from the well containing all reagent except primary antibodies) were subtracted from the sample values. To plot and analyze the data, Microsoft Excel and GraphPad Prism® Software were used. IC50 values were determined by using a nonlinear regression fit to a sigmoidal dose response (variable slope).

phospho-IκBα (Ser32) [1] = test: NanoBiT cell-based immunoassay, phosphorylated IκBα in human primary mammary epithelial cells; conditions: for P-IkB Average: background subtracted; for P-IkB Raw data / P-IkB Subtract reagent background: listed as TNF
Method: as §1, §2, §3, §4

phospho-IκBα (Ser32) [2] = test: NanoBiT cell-based immunoassay, phosphorylated IκBα in human breast tumor epithelial cells; conditions: for P-IkB Average: background subtracted; for P-IkB Raw data / P-IkB Subtract reagent background: listed as TNF
Method: as §1, §2, §3, §4

## TNFα
Total IκBα; TNF 2 min
  Total IkB Average: 18292
  Total IkB Raw data: 29190 and 27950 and 27350
  Total IkB Subtract reagent background: 19319 and 18079 and 17479
Total IκBα; TNF 4 min
  Total IkB Average: 16139
  Total IkB Raw data: 26330 and 26760 and 24940
  Total IkB Subtract reagent background: 16459 and 16889 and 15069
Total IκBα; TNF 6 min
  Total IkB Average: 13185
  Total IkB Raw data: 23190 and 23370 and 22610
  Total IkB Subtract reagent background: 13319 and 13499 and 12739
Total IκBα; TNF 8 min
  Total IkB Average: 9145
  Total IkB Raw data: 19430 and 18940 and 18680
  Total IkB Subtract reagent background: 9559 and 9069 and 8809
Total IκBα; TNF 10 min
  Total IkB Average: 6539
  Total IkB Raw data: 16860 and 16350 and 16020
  Total IkB Subtract reagent background: 6989 and 6479 and 6149
Total IκBα; TNF 12 min
  Total IkB Average: 4795
  Total IkB Raw data: 14910 and 14630 and 14460
  Total IkB Subtract reagent background: 5039 and 4759 and 4589
Total IκBα; TNF 15 min
  Total IkB Average: 3099
  Total IkB Raw data: 13120 and 12980 and 12810
  Total IkB Subtract reagent background: 3249 and 3109 and 2939
Total IκBα; TNF 30 min
  Total IkB Average: 3035
  Total IkB Raw data: 13030 and 12940 and 12750
  Total IkB Subtract reagent background: 3159 and 3069 and 2879
Total IκBα; TNF 45 min
  Total IkB Average: 5225
  Total IkB Raw data: 15670 and 15120 and 14500
  Total IkB Subtract reagent background: 5799 and 5249 and 4629
Total IκBα; TNF 60 min
  Total IkB Average: 7062
  Total IkB Raw data: 16790 and 17170 and 16840
  Total IkB Subtract reagent background: 6919 and 7299 and 6969
phospho-IκBα (Ser32) [1]; TNF 2 min
  P-IkB Average: 5853
  P-IkB Raw data: 17220 and 16460 and 16920
  P-IkB Subtract reagent background: 6207 and 5447 and 5907
phospho-IκBα (Ser32) [1]; TNF 4 min
  P-IkB Average: 8003
  P-IkB Raw data: 18510 and 19530 and 19010
  P-IkB Subtract reagent background: 7497 and 8517
phospho-IκBα (Ser32) [1]; TNF 6 min
  P-IkB Average: 13540
  P-IkB Raw data: 23690 and 24890 and 25080
  P-IkB Subtract reagent background: 12677 and 13877
phospho-IκBα (Ser32) [1]; TNF 8 min
  P-IkB Average: 18690
  P-IkB Raw data: 28000 and 30000 and 31110
  P-IkB Subtract reagent background: 16987 and 18987
phospho-IκBα (Ser32) [1]; TNF 10 min
  P-IkB Average: 22970
  P-IkB Raw data: 33480 and 34070 and 34400
  P-IkB Subtract reagent background: 22467 and 23057
phospho-IκBα (Ser32) [1]; TNF 12 min
  P-IkB Average: 25163
  P-IkB Raw data: 35750 and 35400 and 37380
  P-IkB Subtract reagent background: 24737 and 24387
phospho-IκBα (Ser32) [1]; TNF 15 min
  P-IkB Average: 25267
  P-IkB Raw data: 35860 and 36040 and 36940
  P-IkB Subtract reagent background: 24847 and 25027 and 25927
phospho-IκBα (Ser32) [1]; TNF 30 min
  P-IkB Average: 18640
  P-IkB Raw data: 29280 and 29480 and 30200
  P-IkB Subtract reagent background: 18267 and 18467 and 19187
phospho-IκBα (Ser32) [1]; TNF 45 min
  P-IkB Average: 16850
  P-IkB Raw data: 28120 and 27980 and 27490
  P-IkB Subtract reagent background: 17107 and 16967 and 16477
phospho-IκBα (Ser32) [1]; TNF 60 min
  P-IkB Average: 19710
  P-IkB Raw data: 31240 and 30980 and 29950
  P-IkB Subtract reagent background: 20227 and 19967 and 18937
phospho-IκBα (Ser32) [2]; TNF 2 min
  P-IkB Average: 10421
  P-IkB Raw data: 19130 and 19610 and 19580
  P-IkB Subtract reagent background: 10591 and 10561 and 10111
phospho-IκBα (Ser32) [2]; TNF 4 min
  P-IkB Average: 13121
  P-IkB Raw data: 21660 and 22370 and 22390
  P-IkB Subtract reagent background: 13351 and 13371 and 12641
phospho-IκBα (Ser32) [2]; TNF 6 min
  P-IkB Average: 21828
  P-IkB Raw data: 29170 and 32480 and 30890
  P-IkB Subtract reagent background: 23461 and 21871 and 20151
phospho-IκBα (Ser32) [2]; TNF 8 min
  P-IkB Average: 28528
  P-IkB Raw data: 35450 and 39050 and 38140
  P-IkB Subtract reagent background: 30031 and 29121 and 26431
phospho-IκBα (Ser32) [2]; TNF 10 min
  P-IkB Average: 34158
  P-IkB Raw data: 41810 and 44090 and 43630
  P-IkB Subtract reagent background: 35071 and 34611 and 32791
phospho-IκBα (Ser32) [2]; TNF 12 min
  P-IkB Average: 36728
  P-IkB Raw data: 43840 and 47190 and 46210
  P-IkB Subtract reagent background: 38171 and 37191 and 34821
phospho-IκBα (Ser32) [2]; TNF 15 min
  P-IkB Average: 37461
  P-IkB Raw data: 43590 and 48210 and 47640
  P-IkB Subtract reagent background: 39191 and 38621 and 34571
phospho-IκBα (Ser32) [2]; TNF 30 min
  P-IkB Average: 32864
  P-IkB Raw data: 39720 and 43050 and 42880
  P-IkB Subtract reagent background: 34031 and 33861 and 30701
phospho-IκBα (Ser32) [2]; TNF 45 min
  P-IkB Average: 30164
  P-IkB Raw data: 36730 and 40420 and 40400
  P-IkB Subtract reagent background: 31401 and 31381 and 27711
phospho-IκBα (Ser32) [2]; TNF 60 min
  P-IkB Average: 35274
  P-IkB Raw data: 41100 and 46170 and 45610
  P-IkB Subtract reagent background: 37151 and 36591 and 32081
